Measured values as given in the supplement of paper PMC5908809.

What was measured:
Assay in all cases: relative IC50 (inflection point of fitted viability curve, relative to fitted max inhibition); higher = less sensitive
Conditions in all cases: 72 h
[1] = system: DERL-7 (IL-2 2.5 ng/mL)
Experimental: (§1)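 Drug sensitivity and resistance testing: 5 concentrations over a 10,000-fold range, 72 h at 37 °C, viability by CellTiter-Glo normalised to DMSO and benzethonium chloride controls. IC50 is the inflection point of a logistic fit (min fixed at 0, max fitted), so it is relative to the fitted maximal inhibition. Kept only where fitted max inhibition is at least 50%.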

[2] = system: IMC-1 (IL-2 20 ng/mL)
Experimental: as §1

[3] = system: KAI3 (IL-2 2.5 ng/mL)
Experimental: as §1

[4] = system: KHYG-1 (IL-2 2.5 ng/mL)
Experimental: as §1

[5] = system: NK-92 (IL-2 2.5 ng/mL)
Experimental: as §1

[6] = system: NK-YS (IL-2 2.5 ng/mL)
Experimental: as §1

[7] = system: NKL (IL-2 2.5 ng/mL)
Experimental: as §1

[8] = system: SNK-6 (IL-2 2.5 ng/mL)
Experimental: as §1

[9] = system: YT (IL-2 2.5 ng/mL)
Experimental: as §1

[10] = system: normal primary NK cells, pool 1 (3 donors) (IL-2 2.5 ng/mL)
Experimental: as §1

[11] = system: normal primary NK cells, pool 1 (3 donors), resting (IL-2 0 ng/mL)
Experimental: as §1

[12] = system: normal primary NK cells, pool 2 (3 donors) (IL-2 2.5 ng/mL)
Experimental: as §1

[13] = system: normal primary NK cells, pool 3 (3 donors) (IL-2 2.5 ng/mL)
Experimental: as §1

Row | Compound | relative IC50 [1] [nM] | relative IC50 [2] [nM] | relative IC50 [3] [nM] | relative IC50 [4] [nM] | relative IC50 [5] [nM] | relative IC50 [6] [nM] | relative IC50 [7] [nM] | relative IC50 [8] [nM] | relative IC50 [9] [nM] | relative IC50 [10] [nM] | relative IC50 [11] [nM] | relative IC50 [12] [nM] | relative IC50 [13] [nM]
1 | Cc1nc(Nc2n[nH]c3c2CN(C(=O)N[C@H](CN(C)C)c2ccccc2)C3(C)C)c2sccc2n1 | 57.3 | 4.06 | 243 | 33.1 | 431 | 83.5 | 503 | 1340 | 266 | 1420 | 1300 | 575 | 1590
2 | CCNC(=O)c1noc(-c2cc(C(C)C)c(O)cc2O)c1-c1ccc(CN2CCOCC2)cc1 [Luminespib] | 3.05 | 9.73 | 3.47 | 10.4 | 7.37 | 3.79 | 3.28 | 12.4 | 26.2 | 3.66 | – | 3.27 | 4.81
3 | CN(C)Cc1ccc(S(=O)(=O)n2ccc(/C=C/C(=O)NO)c2)cc1 [Resminostat] | 1040 | 3480 | 304 | 731 | 629 | 1300 | 258 | 829 | 1460 | 667 | 268 | 1160 | 1720
4 | Cn1cncc1[C@@](N)(c1ccc(Cl)cc1)c1ccc2c(c1)c(-c1cccc(Cl)c1)cc(=O)n2C [Tipifarnib] | 91.8 | 1880 | 94.8 | 35.2 | 270 | 61.6 | 401 | 74.1 | 349 | 1110 | 264 | 1580 | 723
5 | Cc1nc(N)sc1-c1ccnc(Nc2ccc(N3CCOCC3)cc2)n1 [CYC-116] | 538 | 913 | 1100 | 599 | 889 | 238 | 989 | 171 | 1400 | 1810 | – | 1600 | 2800
6 | CO[C@H]1/C=C\C=C(/C)C(=O)NC2=CC(=O)C(NCCN(C)C)=C(C[C@@H](C)C[C@H](OC)[C@H](O)[C@@H](C)/C=C(\C)[C@@H]1OC(N)=O)C2=O [Alvespimycin] | 49.1 | 192 | 44.5 | 91.8 | 68.8 | 25.1 | 31.9 | 20.5 | 130 | 29.4 | – | 29.5 | 86.5
7 | COc1ccc(-c2ccc3ncc4c(c3c2)n(-c2ccc(N3CCNCC3)c(C(F)(F)F)c2)c(=O)n4C)cn1 [NVP-BGT226] | 8.54 | 90.7 | 45.8 | 48.4 | 29.8 | 25.3 | 47.8 | 53.8 | 45.6 | 105 | 64.4 | 128 | 167
8 | COc1cc2c(cc1-c1c(C)noc1C)ncc1[nH]c(=O)n([C@H](C)c3ccccn3)c12 [I-BET151] | 306 | 2040 | 848 | 606 | – | 707 | 375 | 149 | 966 | 1040 | 1010 | 1240 | 1850
